Assay results published in PMC9896891 (International Journal of Biological Macromolecules, 2023).
pKd: −log10 of the molar value. Where a name gives a salt, the structure may show the parent alone. Read-outs that look alike come from different tables or passages of the source.

Legend:
[1] = target: T1, SARS-CoV-2 Main protease (M^pro) (Severe acute respiratory syndrome coronavirus 2, UniProt P0DTD1); assay type: binding
[2] = target: T1, SARS-CoV-2 Main protease (M^pro); assay: biochemical; assay type: binding
SARS-CoV-2 [3] = assay: Treatment points; assay type: cell-based; conditions: Vero cells, 48 h
SARS-CoV-2 [4] = assay type: cell-based
[5] = screen of 156 drugs and natural compounds
[6] = relative to M^pro alone (53.5 ± 1 °C)
[7] = compound 8, relative to H2–2/8/9

COc1ccc([C@@H]2Sc3ccccc3N(CCN(C)C)C(=O)[C@@H]2OC(C)=O)cc1 [Compound 1, Diltiazem hydrochloride]
Relative STD saturation, C-4 methyl protons (H3–4) ([1]; compound 1, largest STD integral, reference): 100% | Relative STD saturation, H3–28/H3–29 ([1]; compound 1, relative to H3–4): 31.99% | Interaction with M^pro in STD-NMR spectroscopy [1, 5]: interacting | pKd [2]: ~4.36 | Therapeutic Effect, Log10 of Fold Change (SARS-CoV-2 [3]; 42.5 μM): 2.00 | Therapeutic Effect, Log10 of Fold Change (SARS-CoV-2 [3]; 83 μM): 2.02 | % Reduction in viral plaques (SARS-CoV-2 [4]; 83 μM, Vero cells): 81–88%

Cc1cccc(Nc2ccccc2C(=O)O)c1C [Compound 2, Mefenamic acid]
Relative STD saturation, H3–16 ([1]; compound 2, largest STD integral, reference): 100% | Relative STD saturation, H3–15 ([1]; compound 2, relative to H3–16): 90.7% | Interaction with M^pro in STD-NMR spectroscopy [1, 5]: interacting | pKd [2]: ~4.82 | Modulation of Tm of M^pro [2, 6]: +2.9 °C | % Reduction in viral plaques (SARS-CoV-2 [4]; 83 μM, Vero cells): 81–88%

CCCCc1nc(Cl)c(CO)n1Cc1ccc(-c2ccccc2-c2nn[nH]n2)cc1 [Compound 3, Losartan potassium]
Relative STD saturation, H2–7 ([1]; compound 3, largest STD integral, reference): 100% | Relative STD saturation, H2–8 ([1]; compound 3, relative to H2–7): 45.22% | Relative STD saturation, H2–9 ([1]; compound 3, relative to H2–7): 42.15% | Relative STD saturation, H3–10 ([1]; compound 3, relative to H2–7): 31.49% | Interaction with M^pro in STD-NMR spectroscopy [1, 5]: interacting | pKd [2]: ~4.19 | % Reduction in viral plaques (SARS-CoV-2 [4]; 83 μM, Vero cells): 54.54%

Cc1cccc(C)c1OCC(C)N (centres unmarked) [Compound 4, Mexiletine hydrochloride]
Interaction with M^pro in STD-NMR spectroscopy [1]: interacting | Relative STD saturation, H-6/H-8 [1]: 86.87% | Relative STD saturation, aromatic H-7 [1]: 100% | Relative STD saturation, methyl H-3 [1]: 20% | pKd [2]: ~4.68 | Modulation of Tm of M^pro [2]: +2.9 °C | % Reduction in viral plaques (SARS-CoV-2 [4]): 75.5%

CC(C(=O)O)c1ccc(-c2ccccc2)c(F)c1 (centres unmarked) [Compound 7, Flurbiprofen]
Relative STD saturation, methyl H-1 ([1]; compound 7, highest integral, reference): 100% | Relative STD saturation, H-2 ([1]; compound 7, relative to H-1): 44.10% | Interaction with M^pro in STD-NMR spectroscopy [1, 5]: interacting | pKd [2]: ~4.18 | % Reduction in viral plaques (SARS-CoV-2 [4]; 83 μM, Vero cells): 59.09%

NC12CC3CC(CC(C3)C1)C2 [Compound 8, Amantadine hydrochloride]
Relative STD saturation, H2–2, H2–8, H2–9 ([1]; compound 8, highest STD integral, reference): 100% | Relative STD saturation, H2–4, H2–6, H2–10 [1, 7]: 59–64% | Relative STD saturation, H-3, H-5, H-7 [1, 7]: 78% | Interaction with M^pro in STD-NMR spectroscopy [1, 5]: interacting | Modulation of Tm of M^pro [2, 6]: +2.9 °C | % Reduction in viral plaques (SARS-CoV-2 [4]; 83 μM, Vero cells): 77.27%

COc1ccc2c(c1)[C@]13CCCC[C@@H]1[C@H](C2)N(C)CC3 [Compound 9, Dextromethorphan]
Relative STD saturation, 2H-16 ([1]; compound 9, reference proton): highest saturation | Relative STD saturation, H-6 ([1]; compound 9, relative to 2H-16): 95% | Relative STD saturation, aromatic H-10 ([1]; compound 9, relative to 2H-16): 70.6% | Relative STD saturation, methyl 3H-18 ([1]; compound 9, relative to 2H-16): 30.8% | Relative STD saturation, methyl 3H-20 ([1]; compound 9, relative to 2H-16): 12.8% | Interaction with M^pro in STD-NMR spectroscopy [1, 5]: interacting | Therapeutic Effect, Log10 of Fold Change (SARS-CoV-2 [3]; 83 μM): 2.11 | % Reduction in viral plaques (SARS-CoV-2 [4]; 83 μM, Vero cells): 81–88%

CCN(CC)CCCC(C)Nc1ccnc2cc(Cl)ccc12 (centres unmarked) [Compound 11, Chloroquine phosphate]
% Reduction in viral plaques (SARS-CoV-2 [4]; 41.5 μM, Vero cells): 63.2% | % Reduction in viral plaques (SARS-CoV-2 [4]; 83 μM, Vero cells): 100%

C[C@@H]1C[C@H]2[C@@H]3CCC4=CC(=O)C=C[C@]4(C)[C@@]3(F)[C@@H](O)C[C@]2(C)[C@@]1(O)C(=O)CO [Compound 12, Dexamethasone]
Relative STD saturation, Ha-6 ([1]; compound 12, highest STD integral, reference): 100% | Relative STD saturation, Ha-7 ([1]; compound 12, relative to Ha-6): 58.8% | Relative STD saturation, Hb-6 ([1]; compound 12, relative to Ha-6): 54.8% | Relative STD saturation, Hb-7 ([1]; compound 12, relative to Ha-6): 18.77% | Relative STD saturation, methyl H3–19 ([1]; compound 12, relative to Ha-6): 4.13% | Modulation of Tm of M^pro [2, 6]: +2.9 °C | % Reduction in viral plaques (SARS-CoV-2 [4]; 83 μM, Vero cells): 77.27%

CCC(CC)COC(=O)[C@H](C)N[P@](=O)(OC[C@H]1O[C@@](C#N)(c2ccc3c(N)ncnn23)[C@H](O)[C@@H]1O)Oc1ccccc1 [Compound 13, Remdesivir]
Relative STD saturation, H-37 ([1]; compound 13, highest STD integral, reference): 100% | Relative STD saturation, H-18/H-22 ([1]; compound 13, relative to H-37): 64.95% | Relative STD saturation, H-19/H-21 ([1]; compound 13, relative to H-37): 69.88% | Relative STD saturation, H-20 ([1]; compound 13, relative to H-37): 55.82% | Relative STD saturation, H-34 ([1]; compound 13, relative to H-37): 78.86% | Relative STD saturation, H-35 ([1]; compound 13, relative to H-37): 80.79% | % Reduction in viral plaques (SARS-CoV-2 [4]; 83 μM, Vero cells): 81–88%
